Experiments:
[1] = tested on: rice; experiment: Root architecture modification in wild-type rice after submersion treatment; type: in vivo, Oryza sativa cv Nipponbare; conditions: 10^−8M, 24 hours submersion, assessed after two weeks, FIG. 3
Protocol: (§1) Oryza sativa cv Nipponbare wild-type and Tos17 insertion lines in POLLUX (line NC6453) and DMI3 were used for root architecture experiments (12, 13). Seeds were prepared by sterilizing with 2% bleach for 20 minutes, followed by 3, 5-minute rinses with sterile water. The sterile seeds were then imbibed overnight. Seeds were then plated on damp germination paper in Petri plates under sterile conditions and germinated in the dark at 25 degrees for 7 days. Germinated rice plants were then plated on Fahraeus medium on germination paper and grown at 22 degrees under constant light. After 5 days the plants were treated with 10^−8M LCOs and COs for 24 hours by submersion and re-plated onto Fåhræus Medium 1.5% agar plates (0.132 g/L CaCl2, 0.12 g/L MgSO4.7H2O, 0.1 g/L KH2PO4, 0.075 g/L Na2HPO4.2H2O, 5 mg/L Fe-citrate, and 0.07 mg/L each of MnCl2.4H2O, CuSO4.5H2O, ZnCl2, H3BO3, and Na2MoO4.2H2O, adjusted to pH 6.5 before autoclaving). As all signals were suspended in 50% ethanol, the appropriate concentration of ethanol in sterile DI water served as a control. Root system architecture was assessed after 2 weeks.
(§2) Total lateral roots of rice were enumerated manually two weeks after application of 10^−8M COs and LCOs. As COs and LCOs were suspended in 50% ethanol, the control is sterile deionized water containing the appropriate amount of ethanol. Lateral roots were defined as large and fine lateral roots emerging from crown roots, as well as fine lateral roots emerging from large lateral roots. Root system length was measured starting from the root-shoot junction to the tip of the longest root. The number of crown roots was assessed manually as those roots emerging from the root-shoot junction. Root type characterizations were based upon the descriptions in Gutjahr et al. (19). Data were assessed for normality using the Shapiro-Wilk test (α=0.01), and statistical significance was determined using a paired t-test assuming unequal variances, or a Mann-Whitney-Wilcoxon Test if normality was not observed (α=0.05). All statistical analysis was conducted using the R software package (20).

[2] = tested on: rice trichoblasts (root hair cells); experiment: Calcium spiking (YC3.6 imaging) in rice trichoblasts (root hair cells); type: cell-based, Oryza sativa cv Nipponbare; conditions: 10^−5 M, FIG. 5, FIG. 6
Protocol: Mycorrhizal induced calcium responses were measured as described previously (14). Transgenic Oryza sativa Nipponbare lines carrying Yellow Cameleon 3.6 (YC3.6) FRET-based calcium sensor was used to detect calcium spiking. YC3.6 was imaged on a Nikon Eclipse Ti inverted microscope (Nikon, Japan) equipped with an OptoLED Illuminator (model OptoLED, Cairn Research Ltd, UK). YC3.6 was excited at a wavelength of 455 nm using a royal blue LED and was captured with a charge-coupled device (CCD) camera (model RETIGA-SRV, Qimaging, Canada). Emitted fluorescence was separated by an image splitter with a dichroic mirror (model Optosplit II, Cairn Research Ltd, UK) and then passed through a fluorescence filter set. Images were collected every 5 seconds with 1-second exposure and analyzed using MetaFluor (Molecular Devices, Sunnyvale, Calif., USA).
Both LCOs and COs are Required to Induce Calcium Spiking in Trichoblasts. Rhizobia colonize legumes by root hair cells (trichoblasts), whereas AM fungi colonize roots via non-root hair epidermal cells (atrichoblasts). Thus, these different root epidermal cell types may respond differently to COs and LCOs. To test this, we directly compared trichoblast and atrichoblast responses using high concentrations of CO4 in rice. Calcium oscillations observed in rice following treatments of CO4 were restricted to atrichoblasts, with no responses in trichoblasts even with CO4 treatments of 10^−5 M (FIG. 5). This preferential nature of rice atrichoblasts to respond to the AM signals is consistent with a preference for AM fungi to colonize the root via atrichoblasts (26). It is possible that either AM fungi produce signalling molecules other than S-LCO, NS-LCO and CO4 that induce calcium oscillations in rice trichoblasts, or that the mix of signalling molecules is important. To test this, we assessed induction of calcium oscillations by an equimolar mix of 10^−5 M S-LCO, NS-LCO, and CO4.

[3] = tested on: Hard Red Spring Wheat (HRSW); experiment: Seed treatment of hard red spring wheat in vitro (plates); type: in vivo; conditions: seed coating 125 μl of 10^−6 M; for Number of Lateral Roots / Number of Primary Roots: 4-5 days after transfer
Protocol: Hard red spring wheat seeds were surface sterilized using ethanol and bleach. The sterilized seeds were then divided among 4 treatment groups of 5 grams each into 50 ml falcon tubes. To the control tube, 0.5% ethanol in water was added. To the CO4 tube, 125 μl of 10^−6 M CO4 solution was added. To the CO8 tube, 125 μl of 10^−6 M CO8 solution was added. To the “Consensus” tube, 125 μl of 10^−6 M solution of chitosan (CONSENSUS® chitosan; Loveland Products, Inc., Loveland, Colo.) was added. Each tube was then shaken to coat the seeds. The coated seeds were then placed on sterile Petri dishes in a hood and were left to dry overnight in the hood.
The seeds were then germinated on damp germination paper in sterile Petri dishes for 4 days. The resulting seedlings were transferred to Fahräeus medium plates containing damp germination paper, and the plates were wrapped in Parafilm®. Fahräeus medium contains 0.5 m M MgSO4, 0.7 mM KH2PO4, 0.4 mM Na2HPO4, 0.02 mM Fe-EDTA, 0.01 mM MnSO4, 0.007 mM CuSO4, 0.006 mM ZnSO4, 0.016 mM H3BO3, 0.001 mM Na2MoO4, and 15 g/L Agar for plant tissue, adjusted to pH 6.5 before autoclaving. The plants were grown at room temperature under continuous light for 4-5 days. The number of primary roots (PR), lateral roots (LR), root system length (RSL) and dry weight (DW) was then measured for all plants.

[4] = tested on: rice knock-out mutants of pollux and dmi3; experiment: Root architecture modification in rice Ospollux and Osdmi3 mutants; type: in vivo, Oryza sativa cv Nipponbare; conditions: 10^−8M; Ospollux and Osdmi3 mutants vs wild-type; FIG. 4
Protocol: as §1
as §2, with “Lateral roots were defined as large and fine lateral roots emerging from crown roots, as well as fine lateral roots emerging from large lateral roots.” left out, “Root type characterizations were based upon the descriptions in Gutjahr et al. (19).” left out, “All statistical analysis was conducted using the R software package (20).” left out
To assess the role of the common symbiotic pathway in regulating root architecture modifications in response to purified LCOs and COs, we quantified root responses to mycorrhizal signals in rice knock-out mutants of pollux (upstream of calcium spiking) and dmi3 (downstream of calcium spiking).

Compound | crown root growth [1] | lateral root growth [1] | calcium spiking in trichoblasts [2] | Dry Weight [3] | Number of Lateral Roots [3] | Number of Primary Roots [3] | dependence of lateral root growth promotion on POLLUX / DMI3 [4] | Root System Length (cm) ([3]; * significant at P < 0.05)
CC(=O)N[C@H]1[C@H](O[C@H]2[C@H](O)[C@@H](NC(C)=O)C(O)O[C@@H]2CO)O[C@H](CO)[C@@H](O[C@@H]2O[C@H](CO)[C@@H](O[C@@H]3O[C@H](CO)[C@@H](O)[C@H](O)[C@H]3NC(C)=O)[C@H](O)[C@H]2NC(C)=O)[C@@H]1O (some centres unmarked) [CO4, tetra-N-acetylchitotetraose] | promoted | promoted | no responses | 0.0206 g | 3.73 | 5.20 | dependent on both POLLUX and DMI3 | –
CC(=O)N[C@H]1[C@H](O[C@H]2[C@H](O)[C@@H](NC(C)=O)[C@H](O[C@H]3[C@H](O)[C@@H](NC(C)=O)[C@H](O[C@H]4[C@H](O)[C@@H](NC(C)=O)C(O)O[C@@H]4CO)O[C@@H]3CO)O[C@@H]2CO)O[C@H](CO)[C@@H](O[C@@H]2O[C@H](CO)[C@@H](O[C@@H]3O[C@H](CO)[C@@H](O[C@@H]4O[C@H](CO)[C@@H](O[C@@H]5O[C@H](CO)[C@@H](O)[C@H](O)[C@H]5NC(C)=O)[C@H](O)[C@H]4NC(C)=O)[C@H](O)[C@H]3NC(C)=O)[C@H](O)[C@H]2NC(C)=O)[C@@H]1O (some centres unmarked) [CO8, octa-N-acetyl-chitooctaose] | promoted | promoted | – | 0.0191 g | 3.00 | 5.20 | dependent on POLLUX | 11.51 cm
